Results as given in patent US20210052703A1 (SHANGHAI BENEMAE PHARMACEUTICAL CORPORATION, priority 2018, published 2021).
Read-outs that look alike come from different tables or passages of the source.

Assays:
[1] = test system: mice with normal glycemic index; assay: glucose-induced high blood sugar in mice; format: in vivo
[2] = test system: diabetes patients; conditions: 0.2 mg TID for 12 weeks; temporary
[3] = test system: male diet induced obesity (DIO) mice; conditions: for % of Gastric Remains / Gross Weight of Stomach / Propelling Distance of Carbon Powder / Propelling Rate of Carbon Powder: X ± SE
Protocol: Five minutes after subcutaneous injection, gavage was conducted using 5% carbon powder suspension (in 2% carboxymethylcellulose solution) at 1.5 ml/100 g body weight. […] The stomach was wiped dry with filter paper and weighed for the gross weight of the stomach. Then the content of the stomach was removed and the stomach was weighed for the net weight. The respective distance from the pyloric sphincter to the front of carbon powder suspension and to the distal end of the large intestine was measured. • propelling distance of carbon powder in the intestine (cm)=distance from pylorus to the proximal end of carbon powder; • mass of carbon powder gavaged=concentration of carbon powder suspension×volume; • propelling rate of carbon powder (%)=propelling distance of carbon powder in the intestine (cm)/entire length of intestine (cm)×100%; • rate of gastric remains (%)=(gross weight of stomach−net weight of stomach)/mass of carbon powder gavaged×100%.
The animals were fasted 29-33 hours before injection, and the animals were not given any water 5-7 hours before injection. Injections were made by subcutaneous administration to the neck, at 0.1 ml/100 g body weight.

[4] = test system: patients with type 2 diabetes; assay: trial 5C: Beinaglutide with metformin, multicenter, type 2 diabetes; format: in vivo, human
Text: Note: Covariance analysis was used for comparison between groups. The dependent variable was the change in body weight relative to baseline, and the covariate was baseline. Body weight change from baseline=post-treatment−baseline. Data from 5C test data.

[5] = test system: diet-induced obesity cynomolgus monkeys; assay: body weight, food intake and body composition in diet-induced obesity cynomolgus monkeys (Example 4)
Protocol: (§1) The monkeys are divided into two groups based on age, sex, body weight and BMI, each group having one male and one female.
(§2) The study included three periods: baseline period (the first week), treatment period (the second week through the seventh week), and recovering period (the eighth week). After the monkeys adapted to the meal time for at least 30 days, the body weight, BMI, and body composition of each animal was determined at day 7 of the first baseline period.
(§3) Group 2 animals were administered three times a day at a dose of 10 μg/kg each time during week 2, three times a day at a dose of 20 μg/kg each time during week 3, and three times a day at a dose of 40 μg/kg each time during the first three days of week 4.
(§4) The dose for Group 1 animals during week 5 through week 7 was determined based on the dose given to Group 2 animals during week 2 through week 4. Group 1 animals were administered twice a day at a dose of 10 μg/kg each time during week 5, twice a day at a dose of 20 μg/kg each time during week 6, and twice a day at a dose of 20 μg/kg each time during week 7 (same dose as week 6). During the 6-week treatment period, the body weight and crown-rump height of each animal were measured at the end of each week. The body fat content was measured at week 4 and week 7. No administration was given during week 8.
(§5) The body weight was measured once a week, and crown-rump height was measured at the end of week 1, week 4, and week 7 when Dual-Energy X-ray Absorptiometry (DEXA) scan was taken. The animals were anesthetized by intramuscular administration of 0.02 m/kg Shumianning. While resting on one side, the animals were measured from the top of the head to the bottom of tail as the crown-rump height. BMI was calculated using the formula: BMI=body weight (kg)/crown-rump height (m)^2. DEXA scan was conducted while the animals were anesthetized and body compositions were analyzed based on DEXA scan.

[6] = as above; conditions: both, cynomolgus monkey, in vivo, sc
Protocol: as §1, §2, §3, §4, §5

[7] = test system: mice; assay: blood sugar increase induced by alloxan and streptozotocin in mice; format: in vivo
[8] = Test group (Beinaglutide+metformin), 84 days (12 weeks) from baseline
[9] = Test group, 248 subjects, 84 days from baseline
[10] = Test group, 84 days from baseline

## CC[C@H](C)[C@H](NC(=O)[C@H](Cc1ccccc1)NC(=O)[C@H](CCC(=O)O)NC(=O)[C@H](CCCCN)NC(=O)[C@H](C)NC(=O)[C@H](C)NC(=O)[C@H](CCC(N)=O)NC(=O)CNC(=O)[C@H](CCC(=O)O)NC(=O)[C@H](CC(C)C)NC(=O)[C@H](Cc1ccc(O)cc1)NC(=O)[C@H](CO)NC(=O)[C@H](CO)NC(=O)[C@@H](NC(=O)[C@H](CC(=O)O)NC(=O)[C@H](CO)NC(=O)[C@@H](NC(=O)[C@H](Cc1ccccc1)NC(=O)[C@@H](NC(=O)CNC(=O)[C@H](CCC(=O)O)NC(=O)[C@H](C)NC(=O)[C@@H](N)Cc1cnc[nH]1)[C@@H](C)O)[C@@H](C)O)C(C)C)C(=O)N[C@@H](C)C(=O)N[C@@H](Cc1c[nH]c2ccccc12)C(=O)N[C@@H](CC(C)C)C(=O)N[C@H](C(=O)N[C@@H](CCCCN)C(=O)NCC(=O)N[C@@H](CCCNC(=N)N)C(=O)O)C(C)C [Beinaglutide]
[1]
  effect on glucose-induced high blood sugar: lower glucose-induced high blood sugar
[2]
  most common side effects: nausea and vomiting
[3]; from DIO mice 15 μg/kg
  human dose corresponding to effective dose: 0.12 mg/day
[3]; male DIO mice
  effective dose (inhibition of stomach emptying), as low as: 0.015 mg/kg
[3]; male DIO mice, 15 μg/kg
  % of Gastric Remains: 58.92 ± 3.39%
  Gross Weight of Stomach: 0.49 ± 0.02 g
  Propelling Distance of Carbon Powder: 20.50 ± 1.89 cm
  Propelling Rate of Carbon Powder: 47.34 ± 4.63%
[3]; male DIO mice, 20 μg/kg
  % of Gastric Remains: 63.46 ± 9.45%
  Gross Weight of Stomach: 0.50 ± 0.04 g
  Propelling Distance of Carbon Powder: 14.21 ± 2.59 cm
  Propelling Rate of Carbon Powder: 34.86 ± 6.72%
[3]; male DIO mice, 25 μg/kg
  % of Gastric Remains: 62.69 ± 7.26%
  Gross Weight of Stomach: 0.53 ± 0.03 g
  Propelling Distance of Carbon Powder: 15.00 ± 2.45 cm
  Propelling Rate of Carbon Powder: 35.25 ± 5.72%
[3]; male DIO mice, 50 μg/kg
  % of Gastric Remains: 70.86 ± 7.41%
  Gross Weight of Stomach: 0.55 ± 0.02 g
  Propelling Distance of Carbon Powder: 10.00 ± 1.04 cm
  Propelling Rate of Carbon Powder: 23.80 ± 2.41%
[3]; male DIO mice, 75 μg/kg
  % of Gastric Remains: 78.34 ± 5.75%
  Gross Weight of Stomach: 0.57 ± 0.03 g
  Propelling Distance of Carbon Powder: 9.29 ± 1.23 cm
  Propelling Rate of Carbon Powder: 21.51 ± 2.63%
[3]; male DIO mice, 100 μg/kg
  % of Gastric Remains: 74.37 ± 6.06%
  Gross Weight of Stomach: 0.56 ± 0.02 g
  Propelling Distance of Carbon Powder: 9.00 ± 1.12 cm
  Propelling Rate of Carbon Powder: 20.87 ± 2.19%
[4]; 0.2 mg three times a day with metformin, Baseline BMI 25.81
  Week 12 BMI: 25.09 kg/m^2
[4]; 0.2 mg three times a day with metformin, baseline to week 12, 0 mg group −0.40
  BMI Change: −0.72
[4]; 84 days after medication, covariance analysis, P 0.0075
  difference Test-Control group in body weight change, Corrected mean: −0.82
[4]; Test group (0.2 mg three times a day + metformin), overweight and obese patients, ITT, 84 days after medication
  change in body weight from baseline, median: -2.00 kg
[4]; Test group (0.2 mg three times a day + metformin), overweight and obese patients, ITT, 84 days after medication, 248 subjects
  change in body weight from baseline, Mean ± standard deviation: -2.22 ± 2.55 kg
[4]; [8]
  proportion of subjects with Weight loss ≥ 3%: (40.32) %
  proportion of subjects with weight loss ≥5%: (20.97) %
[4]; [9]
  number of subjects with Weight loss < 3%: 148
  number of subjects with Weight loss < 5%: 196
  number of subjects with Weight loss ≥ 3%: 100
  number of subjects with Weight loss ≥ 5%: 52
[4]; [10]
  proportion of subjects with Weight loss < 3%: (59.68) %
  proportion of subjects with Weight loss < 5%: (79.03) %
[5]; Group 1, end of week 7, compared to baseline
  body fat content: decrease in body fat content
[5]; Group 2, end of week 4, compared to baseline
  body fat content: significant decrease in body fat content
[5]; Group 2, 40 μg/kg three times a day, first three days of week 4
  signs of anorexia: severe signs of anorexia
[5]; animal F1 (female, Group 1), Week 5, 10 μg/kg twice a day, Week 4 before treatment 5.96
  Body Weight: 5.92 kg
[5]; animal F1, Week 5, 10 μg/kg twice a day, Week 4 before treatment 41
  BMI: 39 kg/m^2
[5]; animal F1, Week 6, 20 μg/kg twice a day, Week 4 before treatment 5.96
  Body Weight: 5.94 kg
[5]; animal F1, Week 6, 20 μg/kg twice a day, Week 4 before treatment 41
  BMI: 39 kg/m^2
[5]; animal F1, Week 7, 20 μg/kg twice a day, Week 4 before treatment 5.96
  Body Weight: 5.84 kg
[5]; animal F1, Week 7, 20 μg/kg twice a day, Week 4 before treatment 41
  BMI: 38 kg/m^2
[5]; animal F1, Week 7, after Beinaglutide weeks 5-7, Week 4 1.98
  Fat Content (DEXA): 1.81 kg
[5]; animal F1, Week 7, after Beinaglutide weeks 5-7, Week 4 4.09
  Lean Mass (DEXA): 3.98 kg
[5]; animal F1, Week 7, after Beinaglutide weeks 5-7, Week 4 33.2
  Body Fat Percentage: 31.0%
[5]; animal F2 (female, Group 2), Week 2, 10 μg/kg three times a day, Week 1 baseline 6.18
  Body Weight: 5.96 kg
[5]; animal F2, Week 3, 20 μg/kg three times a day, Week 1 baseline 6.18
  Body Weight: 5.76 kg
[5]; animal F2, Week 4, 40/20 μg/kg three times a day, Week 1 baseline 6.18
  Body Weight: 5.56 kg
[5]; animal F2, Week 4, 40/20 μg/kg three times a day, Week 1 baseline 41
  BMI: 37 kg/m^2
[5]; animal F2, Week 4, after Beinaglutide weeks 2-4, baseline 2.97
  Fat Content (DEXA): 2.71 kg
[5]; animal F2, Week 4, after Beinaglutide weeks 2-4, baseline 3.17
  Lean Mass (DEXA): 2.89 kg
[5]; animal F2, Week 4, after Beinaglutide weeks 2-4, baseline 48.1
  Body Fat Percentage: 48.7%
[5]; animal M1 (male, Group 1), Week 5, 10 μg/kg twice a day, Week 4 before treatment 11.20
  Body Weight: 10.90 kg
[5]; animal M1, Week 5, 10 μg/kg twice a day, Week 4 before treatment 51
  BMI: 49 kg/m^2
[5]; animal M1, Week 6, 20 μg/kg twice a day, Week 4 before treatment 11.20
  Body Weight: 10.44 kg
[5]; animal M1, Week 6, 20 μg/kg twice a day, Week 4 before treatment 51
  BMI: 47 kg/m^2
[5]; animal M1, Week 7, 20 μg/kg twice a day, Week 4 before treatment 11.20
  Body Weight: 10.26 kg
[5]; animal M1, Week 7, 20 μg/kg twice a day, Week 4 before treatment 51
  BMI: 46 kg/m^2
[5]; animal M1, Week 7, after Beinaglutide weeks 5-7, Week 4 3.66
  Fat Content (DEXA): 3.15 kg
[5]; animal M1, Week 7, after Beinaglutide weeks 5-7, Week 4 7.35
  Lean Mass (DEXA): 6.92 kg
[5]; animal M1, Week 7, after Beinaglutide weeks 5-7, Week 4 32.7
  Body Fat Percentage: 30.7%
[5]; animal M2 (male, Group 2), Week 2, 10 μg/kg three times a day, Week 1 baseline 10.52
  Body Weight: 10.30 kg
[5]; animal M2, Week 2, 10 μg/kg three times a day, Week 1 baseline 52
  BMI: 51 kg/m^2
[5]; animal M2, Week 3, 20 μg/kg three times a day, Week 1 baseline 10.52
  Body Weight: 10.00 kg
[5]; animal M2, Week 4, 40/20 μg/kg three times a day, Week 1 baseline 10.52
  Body Weight: 9.70 kg
[5]; animal M2, Week 4, 40/20 μg/kg three times a day, Week 1 baseline 52
  BMI: 48 kg/m^2
[5]; animal M2, Week 4, after Beinaglutide weeks 2-4, baseline 3.49
  Fat Content (DEXA): 2.88 kg
[5]; animal M2, Week 4, after Beinaglutide weeks 2-4, baseline 6.88
  Lean Mass (DEXA): 6.59 kg
[5]; animal M2, Week 4, after Beinaglutide weeks 2-4, baseline 33.2
  Body Fat Percentage: 29.7%
[5]; compared to baseline period, n=4, p<0.05
  body weight after three-week treatment: significant weight loss
[5]; during Beinaglutide treatment period compared to before treatment, p<0.05
  weekly food/calories intake: significantly decreased
[5]; two groups of animals
  BMI after three weeks of treatment: decreased
[6]
  MTD at 504 h: 0.02 to 0.04 mg/kg
[7]
  effect on increase of blood sugar induced by alloxan and streptozotocin: reduce the increase of blood sugar induced by alloxan and streptozotocin
